# Entries after “also recorded” stand apart in the source; their conditions may differ.
# System: acute mouse hippocampal slices
# Assay: Extracellular recordings in CA3 stratum radiatum of acute hippocampal slices after complex I inhibition
# Assay type: cell-based
# Experimental: FIG. 5A depicts electrophysiological recordings showing inhibition of mitochondrial complex I of the electron transport chain creates a hyperexcitable environment in acute mouse hippocampal slices. Epilepsy is defined as a neuronal state of hyperexcitability and hypersynchrony. […] The middle trace is an expansion of field potential marked by an asterisk in the top trace. Time-frequency analysis was performed on the signals to examine the component frequencies occurring during the field potentials. High frequency oscillations (HF05) in the 100-200 Hz bandwidth (called ripples) are normal and reflect small clusters of neurons firing action potentials synchronously. […] Fast ripples occur in humans and animals with epilepsy and are biomarkers for seizure-genic foci.
# In Kv1.1−/− hippocampal slices, pathological high frequency oscillations are prevalent throughout the in Kv1.1−/− hippocampal network. In addition, there is an increase in neurotransmitter release probabilities at specific hippocampal circuit synapses. To experimentally mimic the mitochondrial pathology seen in epilepsy, a drug that impairs mitochondrial function at respiratory complex I, rotenone, was applied to control tissue. […] Fast ripples occur in humans and animals with epilepsy and are biomarkers for seizure-genic foci.
compound,measurement,setting,value
C=C(C)[C@H]1Cc2c(ccc3c2O[C@@H]2COc4cc(OC)c(OC)cc4[C@@H]2C3=O)O1 [rotenone],promotion of seizures,acute application of rotenone to control tissue,sufficient to promote seizures
same,rate and amplitudes of spontaneous field potentials,"rotenone 100 nM, 30 min application",increases
same,"high frequency oscillations (fast ripples), spectral organization","rotenone application, control tissue",spectral disorganization and the generation of faster HFOs; also recorded: promotes spectral disorganization and the generation of pathologic high frequency oscillations
same,intensity of ripples and fast ripples,rotenone applied to slices,increases
same,seizure-like events following high potassium (8 mM),rotenone-treated vs vehicle-treated slice,greater in amplitude and longer in duration

# Reference: patent publication US9700541B2, “Seizure therapy” (Creighton University, priority 2012, dated 2017)
